Laboratory results as given in US7271158B2, “Treatment of rumen acidosis with α-amylase inhibitors” (Pfizer Inc., priority 2000, dated 2007).

Assays:
[1] = biological target: rumen fluid supernatant amylases; assay: Rumen bacterial amylase assay, protocol 2 (amylose azure); settings: read-out: Average IC50, rumen fluid amylase screen
[2] = system: rumen fluid fermentation (RUSITEC chronic acidosis model); assay: RUSITEC rumen simulation, chronic acidosis model: Example 8 and acarbose; format: cell-based, cow
Procedure: RUSITEC Result using Example 8 and Acarbose
Daily maintenance procedures as previously described for Acarbose.
Rumen fluid donor cow—Fed GH313Pellets plus barley straw.
Daily Feed—30 g GH313 pellets plus 2.5 g chopped barley straw.
Acarbose: 1 tablet added to each bag to give 100 mg/vessel/d
Example 8: Eight×57 mg pre-weighed samples stored in fridge in […]. On the day before the feed bags were to be placed in RUSITEC, a 57 mg sample was dissolved in 2.28 ml buffer (25 mg/ml). 0.21 ml of this solution was added to 1.9 ml buffer to give a 2.5 mg/ml solution. 1 ml of each solution was added to a prepared feed bag to give 25 and 2.5 mg/vessel/d. and dried overnight at room temperature.

[3] = system: chronic rumen acidosis induced in fistulated cattle; assay: In vivo testing in fistulated cattle (induced chronic rumen acidosis); set-up: species or system Hereford×Friesian steers; settings: 4.0 g/trt through fistula
From the text: In Vivo Testing in Fistulated Cattle Objective: To determine the effect of the agent for testing, in this case acarbose, on chronic rumen acidosis induced in fistulated cattle. A rumen pH profile representative of chronic acidosis was induced by stepwise increase in the level of concentrate feeding of a specified diet and a reduction in the roughage offered. This was followed by treatment of each animal with acarbose, administered via a permanent rumen fistula, to assess its ability to normalise rumen pH. Experimental Animals: Six fistulated Hereford×Friesian steers, weighing 170-230 kgs (supplied by […] Calves Ltd. […], Ceredigion) Treatment: Glucobay® 100. Acarbose 100 mgs per tablet. Management: The cattle were fed GH651 cattle high cereal beef pellets (variable amount) with barley straw (variable amount) divided over two equal feeds, given at around 08.00 hr and 14.30 hr each day. Precise feeding times were recorded. Water was available ad-lib. Cattle were individually housed in pens (9 square meters per pen) in a building environmentally controlled to 16° C. [table] While chronic acidosis was being induced, manual pH measurements were taken approximately 5 and 8 hours post-morning feed. Rumen fluid samples were taken for VFA and lactate analysis. […] First Sense Recorder). […] Rumen fluid samples (10 ml) were taken twice daily for measurement of VFA levels, molar ratios and lactate levels. These were collected (by manually removing a sample of rumen content with a small stainless […], filtering and transferring to a 10 ml polypropylene vial) just before acarbose was added to the rumen at both dosing times. The pH probes were removed for cleaning and recalibration immediately pre-morning feed. Results: The daily pH curves were used to calculate the period that rumen pH was below pH 5.5, and therefore indicative of chronic acidosis.

[4] = system: rumen fluid fermentation (RUSITEC chronic acidosis model); assay: RUSITEC rumen simulation, chronic acidosis model: acarbose; format: cell-based, Guernsey cow; settings: for increase in butyrate production: between control and treatment periods (0 mg/vessel/d: 24%); for change in VFA production: treatment period vs preceding control period (0 mg/vessel/d: −3%)
From the text: Evaluation of Agents Using the Rumen Simulation Technique ([…]) to Model Chronic Acidosis. The in vitro rumen simulation technique ([…]), first described by Czerkawski and Breckenridge (1977) was used to evaluate the effect of the bacterial α-amylase and/or α-glucosidase inhibitor acarbose on daily pH profiles and VFA production using a commercial cattle concentrate ration (GH313-see later). […] Equipment: The apparatus consisted of two […] units each containing four-fermentation vessels. […] The feed was placed in a nylon bag (14×9 cm, 50 μm), and was gently agitated using a piston mechanism (8 strokes/min). Buffer (McDougall, 1948) was continuously infused at a rate of approximately 750 ml/day by an eight channel peristaltic pump (Watson Marlow). The effluent was collected in 1 liter glass bottles containing 20 ml of oxalic acid solution (12 g/100 ml in deionised water). This was added to inhibit further microbial activity Feed: Each vessel was fed daily with a bag containing 30 g of the commercial pelleted ration GH313 (89% dry matter) and 2.5 g barley straw (90% dry matter) chopped into 1-2 cm lengths. 7 g of corn starch (Sigma Cal. No. S4126) was added to the liquid phase of all fermenter vessels at feeding on the last four days of the experiment to simulate acute acidosis. Rumen fluid donor: Rumen fluid was collected from a five year old dry Guernsey cow. […] Rumen contents were collected via a rumen fistula (Bar Diamond Inc. P.O. Box. 60. Bar Diamond Lane. Parma. Id. 83660-0060. U.S.A) Vessel inoculation: Rumen contents were taken from the fistulated donor animal at 08:00 h (before the morning feed). The material was carried to the laboratory in pre-warmed insulated flasks, and then strained through four layers of cotton gauze into another pre-warmed insulated flask. 70 g of the solid residue were weighed into each of eight nylon bags. One bag containing rumen solids, and one bag containing fresh feed was placed in the feed chamber for each vessel. The liquid contents of each vessel were 100 ml deionised water, 200 ml of buffer artificial and 500 ml of rumen fluid. After assembling and sealing the vessels, they were placed in the water baths and the piston rod attached to the drive bar. The effluent tubes were placed in the collection flasks. The head space in each vessel was flushed with CO2 for 2 min., then the piston drive motor and buffer infusion pump were started. Daily maintenance and sampling procedure: These procedures were carried out at the same time each day. Eight feed bags were prepared, and a 1 l dispenser bottle containing infusion buffer warmed to 39° C. Treatment with acarbose: Acarbose was obtained as GlucobayTM tablets (Bayer, AAH Pharmaceuticals) Each tablet contains 100 mg acarbose. Duplicate vessels were treated with 0, 1, 10 and 100 mg/d of acarbose by adding 1 tablet to each of two feed bags to give 100 mg/vessel/d. The lower doses were prepared by dissolving/suspending a tablet in 10 ml buffer (giving a 10 mg/ml solution of acarbose). One ml of this solution was then added to 9 ml of buffer, giving a 1 mg/ml solution. One ml of each solution was then added to the contents of two feed bags, to give 10 and 1 mg/vessel/d. Finally, the acarbose was dried on to the feed by leaving the bags at room temperature overnight. Analyses: Dry matter losses from the nylon bags after 48 hours incubation were measured by drying the washed bag contents in an oven for 23 h at 65° C. Effluent samples (10 ml) were taken daily and stored at -20° C. for subsequent VFA and lactate analysis .pH was automatically recorded at 17 min. intervals using equipment supplied by Philip Harris Education. A combination electrode was fitted in each vessel via a gas-tight port in the lid. […] The recorded pH values were downloaded to a PC running […] 32 software (Philip Harris Education) and then transferred to a spreadsheet for further analysis. […]

With `CC1OC(OC2C(CO)OC(OC3C(CO)OC(O)C(O)C3O)C(O)C2O)C(O)C(O)C1NC1C=C(CO)C(O)C(O)C1O` (stereo not shown) [Acarbose, acarbose] as the molecule, how does the IC50 [1] read?
Its IC50 is 2390 nM.

And the “increase in mean daily pH” value ([2]; 0.2 mM)?
Its value is 0.7 units.

And the “proportional increase in butyrate production” value ([2]; 100 mg per vessel per day, treatment period vs control period (no treatment: 1%))?
The value was 113%.

And the “change in total VFA production” value ([2]; 100 mg per vessel per day, vs preceding control period (no treatment: −11%))?
The value was −15%.

What about the “total VFA concentrations in rumen fluid” value ([3]; 13:00 samples, treatment vs control phase) of the same molecule?
Its value is “little difference”.

What about the “VFA concentration in rumen fluid” value ([3]; 14:00 samples, during the treatment period) of the same molecule?
Its value is “fell”.

What about the “percentage of propionate in rumen fluid” value ([3]; all sampling times, during the treatment period) of the same molecule?
The value was “lower”.

What about the “increase in butyrate production” value ([4]; 1 mg/vessel/d) of the same molecule?
The value was 27%.

And the “change in VFA production” value ([4]; 1 mg/vessel/d)?
The value was “+3%”.

And the “increase in butyrate production” value ([4]; 10 mg/vessel/d)?
The value was 76%.

And the “change in VFA production” value ([4]; 10 mg/vessel/d)?
Its value is −10%.

And the “increase in butyrate production” value ([4]; 100 mg/vessel/d)?
The value was 134%.

And the “change in VFA production” value ([4]; 100 mg/vessel/d)?
The value was −16%.
